The IC50 is the point on the concentration scale where inhibition reaches its midpoint. One may read the inhibition as how much of the control response was suppressed.

The values below come from PMC4965013, “Open Source Drug Discovery with the Malaria Box Compound Collection for Neglected Diseases and Beyond” (PLoS Pathogens, 2016).

“And” between values parts separate entries of the source, which are not always exact repeats. Equal entries are not always repeated.

Experiment [1] has as its system Neospora caninum Nc-1 tachyzoites. Description: Neospora caninum Nc-Betagal proliferation. In kind it is cell-based.
In experiment [2] the test system is P. falciparum 3D7 trophozoites. Description: Metabolomic fingerprint profiling LC-MS. It is filed as cell-based, Plasmodium falciparum. Also noted: UDP-D-glucose / ADP-D-glucose: unit not given here.
Experiment [3] relates to P. falciparum. The experiment in a line: EC50 listed in S2 Table Metabolomics (used to set the concentration tested). To be noted: Plasmodium falciparum; EC50 used for Factor_XEC50 in metabolomics; read-out: EC50_nM. It is filed as cell-based.
For experiment [4], the target named is T1, PfA-M1 (Plasmodium falciparum, UniProt O96935).
T1 construct: encoding residues 192-1085 of native PfA-M1; hexahistidine (N); TEV cleavage site (ENLYFQS) (N); made in house; host or cells: Escherichia coli BL21 (DE3) Rosetta 2
Description: rPfA-M1 aminopeptidase activity (Florent). It is filed as biochemical, P. falciparum. Particulars: for effect on rPfA-M1 in words: 100µM.

Experiment [5] has as its target T2, PfA-M17 (Plasmodium falciparum, UniProt Q8IL11).
T2 construct: residues 84-605 of native Plasmodium falciparum leucyl aminopeptidase PfA-M17 (PlasmoDB PF3D7_1446200); hexahistidine (N); TEV cleavage site (N); made in house; host or cells: Escherichia coli BL21 (DE3) Rosetta 2
The experiment in a line: rPfA-M17 aminopeptidase activity (Florent). It is filed as biochemical, P. falciparum. Particulars: for effect on rPfA-M17 in words: 100µM.

Experiment [6] has as its system Atg8-Atg3. Also on record: method as in ref [38] (a number printed in a supplementary file, which may have a reference list of its own: not looked up in the article's list). Particulars: ref [38]; cited from earlier work.
The subject of experiment [7] is Trypanosoma brucei rhodesiense STIB 900. To be noted: Run 1 and Run 2; ref [88]; read-out: T. rhodesiense IC50 positive control; cited from earlier work.
Experiment [8] deals with T. b. brucei Squib 427. To be noted: Run 1 and Run 2; ref [88]; read-out: T. brucei brucei IC50 positive control; cited from earlier work.
Experiment [9] relates to Schistosoma mansoni schistosomula (somules). Description: S. mansoni somules phenotypic screen Caffrey. Particulars: 2.5 µM, 48 h.
The test system of experiment [10] is Schistosoma mansoni adult males. Description: S. mansoni adult phenotypic and motility screen Caffrey.
The mark [11] stands for this setting: metabolite level change after treatment.

T2 sequence (Q8IL11 84-605): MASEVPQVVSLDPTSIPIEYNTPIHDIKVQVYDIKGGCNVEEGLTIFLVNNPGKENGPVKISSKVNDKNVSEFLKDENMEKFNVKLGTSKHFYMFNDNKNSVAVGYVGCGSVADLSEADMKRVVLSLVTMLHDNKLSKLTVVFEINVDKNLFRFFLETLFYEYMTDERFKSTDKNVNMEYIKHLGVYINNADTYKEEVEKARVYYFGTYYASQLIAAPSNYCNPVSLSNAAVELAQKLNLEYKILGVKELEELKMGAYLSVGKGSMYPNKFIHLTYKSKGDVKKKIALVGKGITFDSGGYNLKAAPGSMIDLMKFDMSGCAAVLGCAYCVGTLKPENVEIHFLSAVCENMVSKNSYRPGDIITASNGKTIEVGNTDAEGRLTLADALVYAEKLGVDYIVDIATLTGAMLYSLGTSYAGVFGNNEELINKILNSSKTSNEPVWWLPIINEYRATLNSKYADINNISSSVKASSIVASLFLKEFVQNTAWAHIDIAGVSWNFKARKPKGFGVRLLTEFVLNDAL
T1 sequence (O96935 192-1085): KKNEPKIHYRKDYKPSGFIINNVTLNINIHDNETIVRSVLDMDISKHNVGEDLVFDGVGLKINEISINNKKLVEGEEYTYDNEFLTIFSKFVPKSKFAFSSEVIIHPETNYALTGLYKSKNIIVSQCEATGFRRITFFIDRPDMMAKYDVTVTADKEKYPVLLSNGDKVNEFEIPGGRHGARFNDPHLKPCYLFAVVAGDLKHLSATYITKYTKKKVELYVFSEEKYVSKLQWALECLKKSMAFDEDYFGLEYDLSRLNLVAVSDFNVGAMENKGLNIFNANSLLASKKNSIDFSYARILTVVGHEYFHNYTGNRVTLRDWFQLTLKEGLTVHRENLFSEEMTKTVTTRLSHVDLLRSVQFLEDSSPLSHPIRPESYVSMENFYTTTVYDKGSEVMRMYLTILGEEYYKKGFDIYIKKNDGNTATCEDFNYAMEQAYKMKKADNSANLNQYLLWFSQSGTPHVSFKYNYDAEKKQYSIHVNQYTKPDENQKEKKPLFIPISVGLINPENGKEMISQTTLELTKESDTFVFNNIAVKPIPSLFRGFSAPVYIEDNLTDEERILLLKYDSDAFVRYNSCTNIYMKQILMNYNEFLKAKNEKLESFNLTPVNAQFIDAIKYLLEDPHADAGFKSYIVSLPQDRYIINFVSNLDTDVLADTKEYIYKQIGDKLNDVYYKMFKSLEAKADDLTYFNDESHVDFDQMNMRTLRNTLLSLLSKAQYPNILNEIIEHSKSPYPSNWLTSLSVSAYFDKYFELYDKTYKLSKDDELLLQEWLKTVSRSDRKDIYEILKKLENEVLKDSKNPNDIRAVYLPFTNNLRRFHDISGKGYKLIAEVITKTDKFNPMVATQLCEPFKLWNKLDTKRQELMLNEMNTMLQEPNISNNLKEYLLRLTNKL

For the molecule `CCOc1ccc2cc(-c3nn(CC4CCN(C)CC4)c4ncnc(N)c34)ccc2c1` [BKI-1294, reference compound], in experiment [1] (1µM), the “N. caninum proliferation, positive control” value is “complete block of proliferation”.

For `Cc1ccc(NC(=O)Nc2cccc(Cl)c2)cc1F` [MMV000911], in experiment [1], the “non-toxic N. caninum actives” value is reported as “non-toxic N. caninum actives”.

Turning to `CN(C)c1ccc(C=Cc2nc(=O)c3ccccc3o2)cc1` [MMV006309], the “non-toxic N. caninum actives” value in experiment [1] is on record as “non-toxic N. caninum actives”. The Acetyllysine in [2] (S2 Table Metabolomics, metabolite Acetyllysine) is given as -0.06229. Further, the N-acetyl-L-ornithine in experiment [2] (S2 Table Metabolomics, metabolite N-acetyl-L-ornithine) is reported as 0.06709. The N-carbamoyl-L-aspartate in [2] (S2 Table Metabolomics, metabolite N-carbamoyl-L-aspartate) came out at 2.985. Also, in experiment [2] (S2 Table Metabolomics, metabolite NADPH), the NADPH is listed as -0.04695. Further, in experiment [2] (S2 Table Metabolomics, metabolite dAMP), the dAMP is on record as -0.4457. In addition, the dCMP in [2] (S2 Table Metabolomics, metabolite dCMP) worked out at 0.07949. Moreover, the dTDP in [2] (S2 Table Metabolomics, metabolite dTDP) is recorded as -0.6452. Further, the dTMP in experiment [2] (S2 Table Metabolomics, metabolite dTMP) was -0.3602. For the same molecule, the dTTP in [2] (S2 Table Metabolomics, metabolite dTTP) is reported as -0.2468. In addition, in experiment [2] (S2 Table Metabolomics, metabolite dihydroorotate), the dihydroorotate is listed as 3.691. For the same molecule, in experiment [2] (S2 Table Metabolomics, metabolite orotate), the orotate is -0.6105. In experiment [2] (S2 Table Metabolomics, peptide DLH), this molecule showed a DLH of -0.3184. The DLS/SDL/SID in experiment [2] (S2 Table Metabolomics, peptide DLS/SDL/SID) was -0.2456. Besides, in [2] (S2 Table Metabolomics, peptide PD), the PD came out at 0.4341. In addition, the PEE in [2] (S2 Table Metabolomics, peptide PEE) is -0.1161. Besides, in [2] (S2 Table Metabolomics, peptide PVNF), the PVNF is given as -0.4902. Moreover, in experiment [2] (metabolite 3-phosphoglycerate, S2 Table Metabolomics), the 3-phosphoglycerate is -0.1315. Besides, the ADP-D-glucose in experiment [2] (metabolite ADP-D-glucose, S2 Table Metabolomics) is 0.1572. In addition, in experiment [2] (metabolite ATP, S2 Table Metabolomics), the ATP amounted to 0.2918. Besides, the CDP in experiment [2] (metabolite CDP, S2 Table Metabolomics, change in metabolite level after compound treatment) was -0.5525. For the same molecule, in [2] (metabolite D-sedoheptulose-1/7-phosphate, S2 Table Metabolomics, change in metabolite level after compound treatment), the D-sedoheptulose-1/7-phosphate is recorded as 0.4312. In experiment [2] (metabolite FAD, S2 Table Metabolomics), the FAD came out at 0.6491. In experiment [2] (metabolite GMP, S2 Table Metabolomics, change in metabolite level after compound treatment), the GMP worked out at 2.281. Moreover, the “NAD+” value in [2] (metabolite NAD+, S2 Table Metabolomics) is on record as 0.2407. Further, in experiment [2] (metabolite NADP+, S2 Table Metabolomics), the “NADP+” value is recorded as 0.05923. The “Octoluse Bisphosphate” value in experiment [2] (metabolite Octoluse Bisphosphate, S2 Table Metabolomics, change in metabolite level after compound treatment) worked out at 0.03854. For the same molecule, in experiment [2] (metabolite Pyroglutamic acid, S2 Table Metabolomics), the Pyroglutamic acid is reported as -0.251. In experiment [2] (metabolite UDP-D-glucose, S2 Table Metabolomics), the UDP-D-glucose turned out to be 0.2158. Besides, in experiment [2] (metabolite UDP-D-glucuronate, S2 Table Metabolomics), the UDP-D-glucuronate is recorded as 0.1905. Besides, in experiment [2] (metabolite UDP-N-acetyl-glucosamine, S2 Table Metabolomics), the UDP-N-acetyl-glucosamine is 0.2147. Also, the UDP in [2] (metabolite UDP, S2 Table Metabolomics, change in metabolite level after compound treatment) is given as -0.5733. The UMP in experiment [2] (metabolite UMP, S2 Table Metabolomics, change in metabolite level after compound treatment) is -0.8586. In addition, the UTP in experiment [2] (metabolite UTP, S2 Table Metabolomics, change in metabolite level after compound treatment) is given as -0.4965. Besides, the a-ketoglutarate in experiment [2] (metabolite a-ketoglutarate, S2 Table Metabolomics) is -0.2334. Besides, the citrate/isocitrate in experiment [2] (metabolite citrate/isocitrate, S2 Table Metabolomics, change in metabolite level after compound treatment) is listed as -0.148. For the same molecule, in experiment [2] (metabolite cytidine, S2 Table Metabolomics), the cytidine is given as 0.1715. Besides, in experiment [2] (metabolite dATP, S2 Table Metabolomics), the dATP came to 0.5165. Besides, the dGMP/AMP in experiment [2] (metabolite dGMP/AMP, S2 Table Metabolomics, change in metabolite level after compound treatment) is reported as -0.4086. For the same molecule, in experiment [2] (metabolite fumarate, S2 Table Metabolomics, change in metabolite level after compound treatment), the fumarate is reported as 0.4652. The glucose-1/6-phosphate in experiment [2] (metabolite glucose-1/6-phosphate, S2 Table Metabolomics, change in metabolite level after compound treatment) came to 0.457. Further, in experiment [2] (metabolite glycerate, S2 Table Metabolomics, change in metabolite level after compound treatment), the glycerate was 0.3869. Besides, the guanine in experiment [2] (metabolite guanine, S2 Table Metabolomics, change in metabolite level after compound treatment) was 0.4747. In experiment [2] (metabolite guanosine, S2 Table Metabolomics, change in metabolite level after compound treatment), the guanosine came to 0.5548. Besides, in [2] (metabolite hypoxanthine, S2 Table Metabolomics), the hypoxanthine was -0.07215. Moreover, in experiment [2] (metabolite indole, S2 Table Metabolomics), the indole was -0.02242. Also, the inosine in experiment [2] (metabolite inosine, S2 Table Metabolomics, change in metabolite level after compound treatment) is 0.08258. In addition, in [2] (setting [11]), the 2_3-Diphosphoglyceric acid was determined as 0.3655, the 4-phosphopantothenate was -0.02209, the 6-phospho-D-gluconate is 0.4028 and the FMN is reported as 0.2378. Also, in [2] (setting [11]), the IMP was -0.05126, the Pyrophosphate was found to be 0.2614, the Sedoheptoluse bisphosphate amounted to 0.2668 and the cyclic-AMP is listed as 0.09044. In addition, in [2] (setting [11]), the glutathione disulfide stood at 0.5032, the lactate is given as 0.1016 and the myo-inositol is listed as 0.2436. For the same molecule, the nicotinate in experiment [2] (metabolite nicotinate, S2 Table Metabolomics) is reported as 0.1263. Further, the ornithine in experiment [2] (metabolite ornithine, S2 Table Metabolomics) is reported as -0.005843. In experiment [2] (metabolite phosphoenolpyruvate, S2 Table Metabolomics), the phosphoenolpyruvate is listed as -0.2041. In addition, the pyruvate in experiment [2] (metabolite pyruvate, S2 Table Metabolomics, change in metabolite level after compound treatment) is listed as -0.06331. Further, the ribose-phosphate in experiment [2] (metabolite ribose-phosphate, S2 Table Metabolomics) is -0.02548. The sarcosine/alanine in experiment [2] (metabolite sarcosine/alanine, S2 Table Metabolomics, change in metabolite level after compound treatment) is reported as 0.5971. Besides, in experiment [2] (metabolite sn-glycerol-3-phosphate, S2 Table Metabolomics), the sn-glycerol-3-phosphate is on record as -0.04439. For the same molecule, in experiment [2] (metabolite succinate/methylmalonic acid, S2 Table Metabolomics, change in metabolite level after compound treatment), the succinate/methylmalonic acid amounted to 0.1372. In addition, the uridine in [2] (metabolite uridine, S2 Table Metabolomics, change in metabolite level after compound treatment) is -0.2519. Besides, in experiment [2] (metabolite xanthosine, S2 Table Metabolomics, change in metabolite level after compound treatment), the xanthosine amounted to 0.3479. Moreover, the EC50 in [3] stood at 51.5 nM.

For `COc1ccc(Nc2cc(C)nc(NCc3ccccc3)n2)cc1` [MMV006825], the “effect on rPfA-M1 in words” value in experiment [4] is “particularly effective”. In experiment [5], the “effect on rPfA-M17 in words” value is given as “only moderately inhibiting”.

On to `O=C(Nc1ccc(N2CCN(Cc3ccccc3)CC2)cc1)c1cccs1` [MMV019670], for which the “non-toxic N. caninum actives” value in experiment [1] was “non-toxic N. caninum actives”.

For `O=C(Nc1nc(-c2ccccn2)cs1)c1ccccc1Br` [MMV665909], the “PPI inhibitors of Atg8-Atg3 interaction” value in [6] is given as “PPI inhibitors”.

In the case of `CN(C)c1ccc(-c2nc3cc(N)ccc3[nH]2)cc1` [MMV666102], in experiment [4], the “effect on rPfA-M1 in words” value is “particularly effective”.

Take `COc1ccc(C2c3ccc4ccccc4c3Oc3ncn(CCCn4ccnc4)c(=N)c32)cc1OC` (stereo not shown) [MMV667490]: the “effect on rPfA-M1 in words” value in [4] was “particularly effective”. In addition, in [5], the “effect on rPfA-M17 in words” value is reported as “only moderately inhibiting”.

As for `Cc1ccc(C(=O)Nc2ccc(S(=O)(=O)O)c3cc(S(=O)(=O)O)cc(S(=O)(=O)O)c23)cc1NC(=O)c1cccc(NC(=O)Nc2cccc(C(=O)Nc3cc(C(=O)Nc4ccc(S(=O)(=O)O)c5cc(S(=O)(=O)O)cc(S(=O)(=O)O)c45)ccc3C)c2)c1` [Suramin, reference compound], the IC50 in [7] is 70 nM and 50 nM; in [8], 60 nM and 50 nM.

With `CC(C)C[C@H](NC(=O)[C@@H](O)[C@H](N)Cc1ccccc1)C(=O)O` [bestatin, reference compound], the inhibition at 100 µM came out at 57% in experiment [4] and 100% in experiment [5].

`O=C(Nc1ccc([N+](=O)[O-])cc1Cl)c1cc(Cl)ccc1O` [niclosamide] had a somule severity score in experiment [9] of 4. The “S. mansoni adult males 48hr motility assay” value in experiment [10] (48 h, 5µM) is “zero”. In experiment [10] (48hr at 5 µM), the “S. mansoni adult males visual tox scale, 0 = none, 4=most damaged” value is on record as 4.
